ChEMBL document CHEMBL5150003, “Why All the Fury over Furin?” (J Med Chem, 2022)
Peptide text beside a SMILES is read from it. * marks the point of attachment. NH(4-amidinobenzyl) = N=C(N)c1ccc(CN*)cc1; PhAc = O=C(Cc1ccccc1)*; X5 = N=C(N)NC/C=C/CN*

What was measured:
[1] = system: Mus musculus; test: Antifibrotic activity against bleomycin-induced mouse lung fibrosis model assessed as inhibition of hydroxyproline content in lung at 30 mg/kg, po administered once daily; type: functional
[2] = system: Mus musculus; test: Antifibrotic activity against bleomycin-induced mouse lung fibrosis model assessed as inhibition of TGF-beta secretion in lung at 30 mg/kg, po administered once daily; type: functional
[3] = biological target: T1, Furin (Homo sapiens, UniProt P09958); test: Inhibition of furin in human U2OS cells measured after 24 hrs by fluorescence assay; type: cell-based
[4] = biological target: T1, Furin; test: Inhibition of soluble recombinant human furin using pyroGlu-Arg-Thr-Lys-Arg-AMC as substrate and measured by fluorescence assay
[5] = system: Mus musculus; test: Antifibrotic activity against bleomycin-induced mouse lung fibrosis model assessed as inhibition of hydroxyproline content in lung at 10 mg/kg, ip administered twice daily; type: functional
[6] = system: Mus musculus; test: Antifibrotic activity against bleomycin-induced mouse lung fibrosis model assessed as inhibition of TGF-beta secretion in lung at 10 mg/kg, ip administered twice daily; type: functional
[7] = system: Vero; test: Protective activity against Escherichia coli O157:H7 Shiga toxin-induced cytotoxicity in monkey Vero cells measured by LDH assay; type: functional, cell-based; details: Chlorocebus sabaeus
[8] = biological target: T1, Furin; test: Inhibition of recombinant human furin using Phac-Arg-Val-Arg-Arg-AMC as substrate incubated for 30 mins and measured by microplate reader method
[9] = biological target: T1, Furin; test: Inhibition of human furin using Pyr-RTKR-AMC as substrate preincubated for 30 mins followed by substrate addition and measured by fluorescence based assay
[10] = Stability in mouse plasma assessed as half-life; type: ADME, cell-free
[11] = Stability in mouse plasma assessed as compound remaining measured after 24 hrs; type: ADME, cell-free; details: read-out: Stability
[12] = biological target: T1, Furin; test: Inhibition of furin (unknown origin)
[13] = biological target: T1, Furin; test: Inhibition of recombinant human furin protease
[14] = biological target: T1, Furin; test: Inhibition of human furin expressed in HEK293 cells using pGlu-Arg-Thr-LysArg-AMC as substrate and measured by fluorescence based assay
[15] = Inhibition of porcine trypsin using Mes-DArg-Gly-Arg-AMC as substrate and measured by fluorescence assay; design: species or system Sus scrofa
[16] = Dissociation constant, pKa of the compound; type: physicochemical
[17] = system: Mus musculus; test: Antifibrotic activity against bleomycin-induced mouse lung fibrosis model assessed as inhibition of TGF-beta secretion in lung at 10 mg/kg, ip administered once daily; type: functional
[18] = system: Mus musculus; test: Antifibrotic activity against bleomycin-induced mouse lung fibrosis model assessed as inhibition of hydroxyproline content in lung at 10 mg/kg, ip administered once daily; type: functional

T1 sequence (P09958 whole entry): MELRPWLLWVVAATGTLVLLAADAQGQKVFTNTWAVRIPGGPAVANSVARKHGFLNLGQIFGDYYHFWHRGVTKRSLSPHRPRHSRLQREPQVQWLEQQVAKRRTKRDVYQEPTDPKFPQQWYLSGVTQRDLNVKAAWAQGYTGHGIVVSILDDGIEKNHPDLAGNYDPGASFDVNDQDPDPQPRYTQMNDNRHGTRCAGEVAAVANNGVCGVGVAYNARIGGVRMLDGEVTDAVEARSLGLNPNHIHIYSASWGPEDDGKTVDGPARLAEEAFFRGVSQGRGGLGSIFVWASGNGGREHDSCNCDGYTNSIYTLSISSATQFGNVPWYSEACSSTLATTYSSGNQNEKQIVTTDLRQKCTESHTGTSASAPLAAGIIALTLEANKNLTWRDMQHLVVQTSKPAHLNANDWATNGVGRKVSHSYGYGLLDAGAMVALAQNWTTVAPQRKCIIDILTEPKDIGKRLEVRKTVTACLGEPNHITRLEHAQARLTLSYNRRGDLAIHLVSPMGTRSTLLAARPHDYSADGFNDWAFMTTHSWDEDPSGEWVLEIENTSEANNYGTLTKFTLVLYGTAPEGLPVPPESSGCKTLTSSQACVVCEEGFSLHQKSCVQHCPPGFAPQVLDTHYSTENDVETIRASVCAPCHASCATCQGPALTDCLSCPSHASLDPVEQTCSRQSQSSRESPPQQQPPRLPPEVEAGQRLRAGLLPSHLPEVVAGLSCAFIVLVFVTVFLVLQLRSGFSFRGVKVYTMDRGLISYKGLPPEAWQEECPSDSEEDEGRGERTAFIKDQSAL

For `COC(=O)NCC1CCN(Cc2cc(Oc3cnc(N4CCN(CCC(=O)O)CC4)nc3)nc(-c3cc(Cl)cc(Cl)c3)c2)CC1`, which inhibition in vivo at 30 mg/kg [1] is on record?
Its inhibition in vivo at 30 mg/kg is -14%.

And the inhibition in vivo at 30 mg/kg [2]?
Its inhibition in vivo at 30 mg/kg is 7%.

And the pXC50 [3]?
Its pXC50 is 7.5.

Which Ki [4] does the source give for `C/C(=N\NC(=N)N)c1ccc(OCCCOc2ccc(/C(C)=N/NC(=N)N)cc2)cc1` here?
The Ki was 1430 nM.

With `CC(=O)NCC1CCN(Cc2cc(Oc3ccc(N4CCN(CCC(=O)O)CC4)nc3)nc(-c3cc(Cl)cc(Cl)c3)c2)CC1` as the molecule, how does the inhibition in vivo at 10 mg/kg [5] read?
The inhibition in vivo at 10 mg/kg was 67%.

And the inhibition in vivo at 10 mg/kg [6]?
The inhibition in vivo at 10 mg/kg was 69%.

And the pXC50 [3]?
Its pXC50 is 7.6.

With `CC(=O)N[C@@H](CCCNC(=N)N)C(=O)N[C@@H](C)C(=O)N[C@@H](CCCNC(=N)N)C(=O)N[C@@H](CCCNC(=N)N)C(=O)N[C@@H](CCCNC(=N)N)C(=O)N[C@@H](CCCCN)C(=O)N[C@@H](CCCCN)C(=O)NC/C=C/CNC(=N)N` (Ac-RARRRKK-X5) as the molecule, how does the IC50 [7] read?
Its IC50 is 71 µM.

Which Ki [8] does the source give for `CC(C)[C@H](NC(=O)[C@H](CCCNC(=N)N)NC(=O)[C@H](CCCNC(=N)N)NC(=O)[C@H](CCCNC(=N)N)NC(=O)Cc1ccccc1)C(=O)N[C@@H](CCCNC(=N)N)C(=O)NCc1ccc(C(=N)N)cc1` (PhAc-RRRVR-{NH(4-amidinobenzyl)}) here?
Its Ki is 0.0138 nM.

Which Ki [9] does the source give for `CC(=O)N[C@@H](CCCNC(=N)N)C(=O)N[C@H](C(=O)N[C@@H](Cc1ccc(N=C(N)N)cc1)C(=O)NCc1ccc(C(=N)N)cc1)C(C)C` here?
Its Ki is 7 nM.

What does the source list for `CC(=O)N[C@@H](CCCNC(=N)N)C(=O)N[C@@H](C)C(=O)N[C@@H](CCCNC(=N)N)C(=O)N[C@@H](CCCNC(=N)N)C(=O)N[C@@H](CCCNC(=N)N)C(=O)N[C@@H](CCCCN)C(=O)N[C@@H](CCCCN)C(=O)N[C@@H](CCCNC(=N)N)C(=O)N[C@H](C(N)=O)[C@@H](C)O`?
half-life [10]: 102 min; IC50 [7]: > 1000 µM; remaining at 24 h [11]: 5%; Ki [12]: 19 nM; Ki [13]: 19 nM

For `CN1CCCN(c2ncc(Oc3cc(CN4CCC(CC(=O)O)CC4)cc(-c4cc(Cl)cc(Cl)c4)n3)cn2)CC1`, which inhibition in vivo at 30 mg/kg [1] is on record?
The inhibition in vivo at 30 mg/kg was 36%.

And the inhibition in vivo at 30 mg/kg [2]?
The inhibition in vivo at 30 mg/kg was 34%.

What about the pXC50 [3] of the same molecule?
The pXC50 was 8.2.

With `CC(C)[C@H](NC(=O)[C@H](CCCNC(=N)N)NC(=O)Cc1ccc(CNC(=N)N)cc1)C(=O)N[C@@H](CCCNC(=N)N)C(=O)NCc1ccc(C(=N)N)cc1` as the molecule, how does the Ki [14] read?
The Ki was 0.0076 nM.

For `CC(C)[C@H](NS(=O)(=O)Cc1ccc(C(=N)N)cc1)C(=O)N[C@@H](CCCNC(=N)N)C(=O)NCc1ccc(C(=N)N)cc1`, which Ki [9] is on record?
Its Ki is 300 nM.

Which Ki [8] does the source give for `CC(C)(C)[C@H](NC(=O)CCCCNC(=N)N)C(=O)N[C@@H](CCCNC(=N)N)C(=O)NCc1ccc(C(=N)N)cc1` here?
Its Ki is 1.26 nM.

With `O=C(O)CC1CCN(Cc2cc(Oc3cnc(N4CCN5CCC4C5)nc3)nc(-c3cc(Cl)cc(Cl)c3)c2)CC1` (stereo unspecified) as the molecule, how does the inhibition in vivo at 30 mg/kg [1] read?
Its inhibition in vivo at 30 mg/kg is 34%.

What about the inhibition in vivo at 30 mg/kg [2] of the same molecule?
The inhibition in vivo at 30 mg/kg was 36%.

And the pXC50 [3]?
The pXC50 was 7.7.

With `CC(C)[C@H](NC(=O)CCCCNC(=N)N)C(=O)N[C@@H](CCCNC(=N)N)C(=O)NCc1ccc(C(=N)N)cc1` as the molecule, how does the Ki [8] read?
Its Ki is 2.5 nM.

With `CC(C)(C)[C@H](NC(=O)[C@H](CCCNC(=N)N)NC(=O)Cc1ccc(CNC(=N)N)cc1)C(=O)N[C@@H](CCCNC(=N)N)C(=O)NCc1ccc(C(=N)N)cc1` as the molecule, how does the Ki [15] read?
The Ki was 52 nM.

With `CC(C)(C)[C@H](NC(=O)[C@H](CCCNC(=N)N)NC(=O)Cc1ccc(CNC(=N)N)cc1)C(=O)N[C@@H](CCCNC(=N)N)C(=O)NCc1ccc(C(=N)N)c(F)c1` as the molecule, how does the pKa [16] read?
Its pKa is 9.46.

What about the IC50 [12] of the same molecule?
The IC50 was 0.56 nM.

What about the Ki [12] of the same molecule?
The Ki was 0.0223 nM.

Which Ki [14] does the source give for `CC(C)[C@H](NC(=O)[C@H](CCCNC(=N)N)NC(=O)Cc1cccc(CNC(=N)N)c1)C(=O)N[C@@H](CCCNC(=N)N)C(=O)NCc1ccc(C(=N)N)cc1` here?
Its Ki is 0.016 nM.

For `CC1C(=O)N[C@@H](CCCNC(=N)N)C(=O)N[C@@H](C)C(=O)N[C@@H](CCCNC(=N)N)C(=O)N[C@@H](CCCNC(=N)N)C(=O)N[C@@H](CCCNC(=N)N)C(=O)N[C@H](C(=O)N[C@@H](CCCCN)C(=O)N[C@@H](CCCNC(=N)N)C(=O)N[C@H](C(N)=O)[C@@H](C)O)CCCCNC(CCCNC(=N)N)c2cn1nn2` (stereo partly specified), which half-life [10] is on record?
The half-life was 42 min.

What about the remaining at 24 h [11] of the same molecule?
The remaining at 24 h was 28%.

And the Ki [12]?
Its Ki is 16.7 nM.

Which Ki [8] does the source give for `CC(C)(C)[C@H](NC(=O)[C@H](CCCNC(=N)N)NC(=O)Cc1ccc(CNC(=N)N)cc1)C(=O)N[C@@H](CCCONC(=N)N)C(=O)NCc1ccc(C(=N)N)cc1` here?
The Ki was 0.0131 nM.

Which inhibition in vivo at 10 mg/kg [17] does the source give for `CC(=O)NCC1CCN(Cc2cc(Oc3ccc(N4CCN(CCO)CC4)nc3)nc(-c3cc(Cl)cc(Cl)c3)c2)CC1` here?
Its inhibition in vivo at 10 mg/kg is 60%.

And the inhibition in vivo at 10 mg/kg [18]?
The inhibition in vivo at 10 mg/kg was 56%.

What about the pXC50 [3] of the same molecule?
Its pXC50 is 8.5.

What does the source list for `CC(=O)N[C@@H](CCCNC(=N)N)C(=O)NN(CCCNC(=N)N)CC(=O)N[C@@H](C)C(=O)N[C@@H](CCCNC(=N)N)C(=O)N[C@@H](CCCNC(=N)N)C(=O)N[C@@H](CCCNC(=N)N)C(=O)N[C@@H](CCCCN)C(=O)N[C@@H](CCCCN)C(=O)N[C@@H](CCCNC(=N)N)C(=O)N[C@H](C(N)=O)[C@@H](C)O`?
half-life [10]: 62.4 min; IC50 [7]: > 1000 µM; remaining at 24 h [11]: 29%; Ki [12]: 12 nM
